Target: T1, MCL-1 (Homo sapiens, UniProt Q07820)
T1 construct: purchased BPS Bioscience
Test: Cell free Mcl-1:Bim affinity assay (fluorescence polarization competition)
Assay type: binding
Conditions: 15 nM MCL-1, 5 nM FITC-Bim tracer, 1 hour at room temperature; Ki calc. from IC50 by Nikolovska-Coleska's equation; read-out: BIM_ Ki
Protocol: Cell Free Mcl-1:Bim Affinity Assay (Mcl-1 Bim)
The binding affinity of each compound was measured via a fluorescence polarization competition assay, in which the compound competes for the same binding site with the ligand, and thus leads to a dose-dependent anisotropy reduction. The tracer ligand utilized was a fluorescein isothiocyanate labelled peptide (FITC-[…]) derived from Bim (GenScript).
The assay was carried out in black half-area 96-well NBS plate (Corning), containing 15 nM of MCL-1 (BPS Bioscience), 5 nM of FITC-Bim and 3-fold serial diluted test compounds in a total volume of 50 μL of assay buffer (20 mM HEPES, 50 mM NaCl, 0.002% Tween 20, 1 mM TCEP, and 1% DMSO). The reaction plate was incubated for 1 hour at room temperature. The change of anisotropy is measured with an Envision multimode plate reader (PerkinElmer) at emission wavelength 535 nm. Fluorescence polarization was calc. in mP unit and the percentage inhibition was calc. by % inhibition=100×(mPDMSO−mP)/(mPDMSO−mPPC), in which mPDMSO is the DMSO control, and mPPC is the positive control. IC50 values were determined from a 10-point dose response curve by fitting the percent inhibition against compound concentration using the GraphPad Prism software. The inhibition constant Ki was subsequently calc. according to the Nikolovska-Coleska's equation (Anal. Biochem., 2004, 332, 261),
where [I]50 is the concentration of the free inhibitor at 50% inhibition, [L]50 is the concentration of the free labeled ligand at 50% inhibition, [P]0 is the concentration of the free protein at 0% inhibition, and Kd is the dissociation constant of the protein-ligand complex.

T1 sequence (Q07820 whole entry): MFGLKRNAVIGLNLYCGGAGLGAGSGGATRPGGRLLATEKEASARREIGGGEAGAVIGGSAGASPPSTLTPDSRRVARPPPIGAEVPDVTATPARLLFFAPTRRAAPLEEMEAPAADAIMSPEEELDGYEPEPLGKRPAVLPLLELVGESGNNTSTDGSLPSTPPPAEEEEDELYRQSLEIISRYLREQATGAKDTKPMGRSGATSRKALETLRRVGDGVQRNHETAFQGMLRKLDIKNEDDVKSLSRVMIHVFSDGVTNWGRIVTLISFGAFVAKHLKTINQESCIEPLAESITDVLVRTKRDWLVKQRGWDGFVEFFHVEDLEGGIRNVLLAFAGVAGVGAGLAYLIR

Ki, > 1 nM:
CO[C@H]1/C=C/COC(C)(C)C(=O)N=S(=O)(NC(=O)NC2CCOCC2)c2ccc3c(c2)N(C[C@@H]2CC[C@H]21)C[C@@]1(CCCc2cc(Cl)ccc21)CO3 (stereo partly drawn) [Example 38, 1-[(3R,6R,7S,8E,22S)-7′-Chloro-7-methoxy-12,12-dimethyl-13,15-dioxospiro[11,20-dioxa-15-thia-1,14-diazatetracyclo[14.7.2.03,6.019,24]pentacosa-8,14,16,18,24-pentaene-22,4′-2,3-dihydro-1H-naphthalene]-15-yl]-3-(oxan-4-yl)urea]
Cn1cc(C(=O)NS2(=O)=NC(=O)C(C)(C)OC/C=C/[C@H](O)[C@@H]3CC[C@H]3CN3C[C@@]4(CCCc5cc(Cl)ccc54)COc4ccc2cc43)cn1 (stereo partly drawn) [Example 52, N-[(3R,6R,7S,8E,22S)-7′-Chloro-7-hydroxy-12,12-dimethyl-13,15-dioxospiro[11,20-dioxa-15-thia-1,14-diazatetracyclo[14.7.2.03,6.019,24]pentacosa-8,14,16,18,24-pentaene-22,4′-2,3-dihydro-1H-naphthalene]-15-yl]-1-methylpyrazole-4-carboxamide]

Ki, < 1 nM:
CO[C@H]1/C=C/COC(C)(C)C(=O)N=S(=O)(NC(=O)c2cnn(C)c2C)c2ccc3c(c2)N(C[C@@H]2CC[C@H]21)C[C@@]1(CCCc2cc(Cl)ccc21)CO3 (stereo partly drawn) [Example 18, N-[(3R,6R,7S,8E,22S)-7′-Chloro-7-methoxy-12,12-dimethyl-13,15-dioxospiro[11,20-dioxa-15-thia-1,14-diazatetracyclo[14.7.2.03,6.019,24]pentacosa-8,14,16,18,24-pentaene-22,4′-2,3-dihydro-1H-naphthalene]-15-yl]-1,5-dimethylpyrazole-4-carboxamide]
CO[C@H]1/C=C/COC(C)(C)C(=O)N=S(=O)(NC(=O)c2cc(C)n(C)n2)c2ccc3c(c2)N(C[C@@H]2CC[C@H]21)C[C@@]1(CCCc2cc(Cl)ccc21)CO3 (stereo partly drawn) [Example 19, N-[(3R,6R,7S,8E,22S)-7′-Chloro-7-methoxy-12,12-dimethyl-13,15-dioxospiro[11,20-dioxa-15-thia-1,14-diazatetracyclo[14.7.2.03,6.019,24]pentacosa-8,14,16,18,24-pentaene-22,4′-2,3-dihydro-1H-naphthalene]-15-yl]-1,5-dimethylpyrazole-3-carboxamide]
Cc1nn(C)cc1C(=O)NS1(=O)=NC(=O)C(C)(C)OC/C=C/[C@H](OC(=O)N(C)C)[C@@H]2CC[C@H]2CN2C[C@@]3(CCCc4cc(Cl)ccc43)COc3ccc1cc32 (stereo partly drawn) [Example 51, [(3R,6R,7S,8E,22S)-7′-Chloro-15-[(1,3-dimethylpyrazole-4-carbonyl)amino]-12,12-dimethyl-13,15-dioxospiro[11,20-dioxa-15-thia-1,14-diazatetracyclo[14.7.2.03,6.019,24]pentacosa-8,14,16,18,24-pentaene-22,4′-2,3-dihydro-1H-naphthalene]-7-yl] N,N-dimethylcarbamate]
CN(C)C(=O)O[C@H]1/C=C/COC(C)(C)C(=O)N=S(=O)(NC(=O)c2cnn(C)c2)c2ccc3c(c2)N(C[C@@H]2CC[C@H]21)C[C@@]1(CCCc2cc(Cl)ccc21)CO3 (stereo partly drawn) [Example 53, [(3R,6R,7S,8E,22S)-7′-Chloro-12,12-dimethyl-15-[(1-methylpyrazole-4-carbonyl)amino]-13,15-dioxospiro[11,20-dioxa-15-thia-1,14-diazatetracyclo[14.7.2.03,6.019,24]pentacosa-8,14,16,18,24-pentaene-22,4′-2,3-dihydro-1H-naphthalene]-7-yl] N,N-dimethylcarbamate]
CC(C)C(=O)NS1(=O)=NC(=O)C(C)(C)OC/C=C/[C@H](OCCN2CCCC2)[C@@H]2CC[C@H]2CN2C[C@@]3(CCCc4cc(Cl)ccc43)COc3ccc1cc32 (stereo partly drawn) [Example 54, N-[(3R,6R,7S,8E,22S)-7′-Chloro-12,12-dimethyl-13,15-dioxo-7-(2-pyrrolidin-1-ylethoxy)spiro[11,20-dioxa-15-thia-1,14-diazatetracyclo[14.7.2.03,6.019,24]pentacosa-8,14,16,18,24-pentaene-22,4′-2,3-dihydro-1H-naphthalene]-15-yl]-2-methylpropanamide]
